A short description of data set [1]: Inhibition of RNA polymerase-1 in human U2OS cells assessed as decrease in nucleolar localization of nucleolin after 3 hrs by epifluorescence microscopic analysis. The class given is cell-based.
The target in data set [2] is DNA-directed RNA polymerase I subunit RPA1 (Homo sapiens, UniProt O95602). Conditions: u2os.
Description: Induction of RNA polymerase-1 RPA194 subunit degradation in human U2OS cells after 3 hrs by epifluorescence microscopic analysis
Data set [3] has as its system U2OS. Conditions: Homo sapiens, 10 uM.
Description: Inhibition of RNA polymerase-1 in human U2OS cells assessed as effect on nucleolin protein expression at 10 uM after 3 hrs by Western blot analysis
Data set [4] deals with U2OS. Briefly: Cytotoxicity against human U2OS cells assessed as loss of cell viability at 0.5 to 5 uM after 48 hrs by WST-1 assay. Type of data set: functional, cell-based.
Data set [5] concerns U2OS. The following applies: Homo sapiens, 0.1 to 1 uM.
Description: Inhibition of RNA polymerase-1 in human U2OS cells assessed as effect on nucleolin protein expression at 0.1 to 1 uM after 3 hrs by Western blot analysis
For a further data set, the system named is Liver microsome. Briefly: Half life in human liver microsomes at 1 uM preincubated for 5 mins followed by beta-NADPH addition. The class given is ADME. On the technique in general: Liver microsomes are vesicles of endoplasmic reticulum, rich in cytochrome P450 enzymes.

Each structure is given as a SMILES string. Active and inactive are the calls of the source. The rule behind the calls is not given here. Where only a bound is given, the exact number is not on record here.

The source of these data is ChEMBL document CHEMBL3286342, “Design, synthesis, and structure-activity relationships of pyridoquinazolinecarboxamides as RNA polymerase I inhibitors” (J Med Chem, 2014).

Chain of DNA-directed RNA polymerase I subunit RPA1 (O95602 whole entry): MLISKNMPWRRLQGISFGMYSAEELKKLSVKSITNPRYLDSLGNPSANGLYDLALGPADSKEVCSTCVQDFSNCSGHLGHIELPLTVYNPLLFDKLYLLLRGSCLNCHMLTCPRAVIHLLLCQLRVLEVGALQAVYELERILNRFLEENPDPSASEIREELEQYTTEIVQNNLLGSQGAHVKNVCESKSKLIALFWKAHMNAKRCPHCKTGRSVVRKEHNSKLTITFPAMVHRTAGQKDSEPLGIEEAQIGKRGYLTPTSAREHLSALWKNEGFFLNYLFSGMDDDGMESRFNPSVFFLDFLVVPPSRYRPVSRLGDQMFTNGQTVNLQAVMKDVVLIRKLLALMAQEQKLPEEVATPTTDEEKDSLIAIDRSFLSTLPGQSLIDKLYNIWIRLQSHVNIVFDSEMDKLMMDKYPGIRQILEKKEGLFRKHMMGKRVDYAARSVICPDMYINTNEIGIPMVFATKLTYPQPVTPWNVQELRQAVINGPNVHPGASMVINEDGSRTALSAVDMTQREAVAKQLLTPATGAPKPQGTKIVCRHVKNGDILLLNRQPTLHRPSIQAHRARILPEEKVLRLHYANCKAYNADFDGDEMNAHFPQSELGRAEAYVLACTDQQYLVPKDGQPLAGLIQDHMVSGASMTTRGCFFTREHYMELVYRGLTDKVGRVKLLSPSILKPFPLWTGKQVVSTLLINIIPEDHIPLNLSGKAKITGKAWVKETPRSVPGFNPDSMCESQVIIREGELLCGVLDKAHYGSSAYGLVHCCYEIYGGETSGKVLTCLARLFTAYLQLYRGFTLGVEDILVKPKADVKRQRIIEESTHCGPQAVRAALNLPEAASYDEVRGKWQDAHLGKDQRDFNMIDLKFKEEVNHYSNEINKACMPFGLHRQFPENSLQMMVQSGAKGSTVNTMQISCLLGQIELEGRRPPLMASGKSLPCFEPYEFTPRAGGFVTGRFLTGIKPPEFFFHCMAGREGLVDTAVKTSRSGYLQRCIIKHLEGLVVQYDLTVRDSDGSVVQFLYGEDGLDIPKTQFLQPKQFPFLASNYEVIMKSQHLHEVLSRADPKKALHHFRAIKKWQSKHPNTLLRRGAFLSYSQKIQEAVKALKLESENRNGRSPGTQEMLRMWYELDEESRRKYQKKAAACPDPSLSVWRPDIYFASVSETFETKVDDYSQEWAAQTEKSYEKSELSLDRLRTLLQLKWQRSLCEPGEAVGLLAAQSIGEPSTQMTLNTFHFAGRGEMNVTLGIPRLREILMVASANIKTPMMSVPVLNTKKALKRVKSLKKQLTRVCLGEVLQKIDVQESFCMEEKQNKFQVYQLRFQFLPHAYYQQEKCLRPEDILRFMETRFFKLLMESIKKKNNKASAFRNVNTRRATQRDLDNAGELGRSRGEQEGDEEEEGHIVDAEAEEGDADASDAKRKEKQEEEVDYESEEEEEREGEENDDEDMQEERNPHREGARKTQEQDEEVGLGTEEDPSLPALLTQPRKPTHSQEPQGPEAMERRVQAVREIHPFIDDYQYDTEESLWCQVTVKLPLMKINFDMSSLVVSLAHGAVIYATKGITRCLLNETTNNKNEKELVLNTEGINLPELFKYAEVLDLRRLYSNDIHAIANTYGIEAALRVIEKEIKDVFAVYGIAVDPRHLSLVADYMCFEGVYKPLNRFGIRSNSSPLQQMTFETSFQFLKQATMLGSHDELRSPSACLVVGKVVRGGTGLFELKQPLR

By IC50 is commonly meant the concentration that gives 50% inhibition. `CCN(CC)CCNC(=O)c1cccn2c(=O)c3ccccc3nc12`: the IC50 in data set [1] was 3.28 µM; in data set [2], 1.35 µM.
`CN(C)CCNC(=O)c1cccn2c(=O)c3ccccc3nc12`: the values for the IC50 in data set [1] and in data set [2] were 3.17 µM and 2.17 µM, respectively. Further, the inhibition entry with U2OS [3] is “Active”. In addition, the result in the data set on U2OS [4] was inactive. Also, in the data set on U2OS [5], the inhibition result is “inactive”.
Regarding `O=C(NCCN1CCCCC1)c1cccn2c(=O)c3cc4ccccc4cc3nc12`, in the data set on U2OS [3], the inhibition entry is “Active”. The result in the data set with U2OS [4] was Active. In addition, in the data set on Liver microsome, the t1/2 stood at 25 min. Moreover, in the data set with U2OS [5], the inhibition result was “inactive”.
Regarding `CCN(CC)CCNC(=O)c1cccn2c(=O)c3cc4ccccc4cc3nc12`, the t1/2 with Liver microsome is 21 min.
As for `CN(C)CCN(C)C(=O)c1cccn2c(=O)c3cc4ccccc4cc3nc12`, in data set [1], the IC50 is above 100 µM. Further, the inhibition result in the data set on U2OS [3] was “Active”. Moreover, the result in the data set with U2OS [4] was inactive. Besides, the inhibition entry with U2OS [5] is “inactive”.
For the compound `O=C(NCCN1CCCC1)c1cccn2c(=O)c3cc4ccccc4cc3nc12`, the result with U2OS [4] was Active. Besides, the t1/2 in the data set with Liver microsome is 33 min.
`CN(C)CCOC(=O)c1cccn2c(=O)c3cc4ccccc4cc3nc12`: the IC50 in data set [1] worked out at 12.3 µM; in data set [2] it was 50.9 µM.
`CN1CCN(CCNC(=O)c2cccn3c(=O)c4cc5ccccc5cc4nc23)CC1`: the t1/2 in the data set with Liver microsome came to 43 min.
For `O=C(NCCN1CCOCC1)c1cccn2c(=O)c3cc4ccccc4cc3nc12`, in the data set with U2OS [3], the inhibition entry was “Active”. Also, in the data set with U2OS [4], the result was inactive. Further, in the data set with U2OS [5], the inhibition entry is “inactive”.
In the data set with Liver microsome, `COCCN(C)CCNC(=O)c1cccn2c(=O)c3cc4ccccc4cc3nc12` had a t1/2 of 14 min.
Turning to `CN(C)CCNC(=O)c1cccn2c(=O)c3cc4ccccc4cc3nc12`, in data set [1], the IC50 is 0.07 µM. In the data set on U2OS [3], the inhibition result is “Active”. Besides, the result with U2OS [4] was Active. Further, the t1/2 with Liver microsome is reported as 57 min. Moreover, the inhibition result in the data set on U2OS [5] is “inactive”.
`CC(CN(C)C)NC(=O)c1cccn2c(=O)c3cc4ccccc4cc3nc12` (stereo not given): in the data set on U2OS [3], the inhibition result was “Active”. The compound also came in with a t1/2 in the data set on Liver microsome of 54 min. Also, in the data set on U2OS [5], the inhibition result was “inactive”.
Take `CN(C)CCCCNC(=O)c1cccn2c(=O)c3cc4ccccc4cc3nc12`: in the data set with U2OS [3], the inhibition entry is “Active”. Also, in the data set with U2OS [4], the result was inactive. The inhibition entry in the data set with U2OS [5] was “inactive”.
Take `CCN(CC)C1CCN(C(=O)c2cccn3c(=O)c4cc5ccccc5cc4nc23)C1` (stereo not given): the IC50 was determined as 10.6 µM in data set [1] and 31.8 µM in data set [2].
As for `CC(CNC(=O)c1cccn2c(=O)c3cc4ccccc4cc3nc12)N(C)C` (stereo not given), the outcome in the data set with U2OS [4] was Active. This compound also gave a t1/2 in the data set with Liver microsome of 43 min.
